In publication PMC6556873, “Rapid Covalent-Probe Discovery by Electrophile-Fragment Screening” (Journal of the American Chemical Society, 2019):
Like-named read-outs stand apart in the source and are kept apart here.

Experiments:
[1] = in vitro; design: species or system HB2, HEK293; conditions: human, ccd841 cells
[2] = target: T1, OTUB2 (OTUB2A) (Homo sapiens, UniProt Q96DC9); design: Intact protein LC/MS covalent labelling, fragments in pools of five, 200 uM each, 4 °C; conditions: 24 h, 4 °C, pool of five; 200 µM; covalent
T1 construct: full length residues 1-234, E. coli BL21(DE3)-R3, His tag removed by TEV, construct 27312 Da
T1 sequence (Q96DC9 1-234): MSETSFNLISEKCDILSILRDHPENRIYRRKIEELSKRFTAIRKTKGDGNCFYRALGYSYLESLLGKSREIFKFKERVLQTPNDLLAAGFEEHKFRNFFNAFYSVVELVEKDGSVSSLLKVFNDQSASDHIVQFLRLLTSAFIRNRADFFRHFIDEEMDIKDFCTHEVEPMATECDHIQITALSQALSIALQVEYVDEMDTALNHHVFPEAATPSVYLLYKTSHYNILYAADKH

[3] = target: T2, NNMT (hNNMT) (Homo sapiens, UniProt P40261); design: Intact protein LC/MS covalent labelling, fragments in pools of five, 200 uM each, 4 °C; conditions: 24 h, 4 °C, pool of five; 200 µM; covalent
T2 construct: wild type, N-terminal His6 tag kept (no cleavage described), E. coli, construct 31248 Da
T2 sequence (P40261 1-264): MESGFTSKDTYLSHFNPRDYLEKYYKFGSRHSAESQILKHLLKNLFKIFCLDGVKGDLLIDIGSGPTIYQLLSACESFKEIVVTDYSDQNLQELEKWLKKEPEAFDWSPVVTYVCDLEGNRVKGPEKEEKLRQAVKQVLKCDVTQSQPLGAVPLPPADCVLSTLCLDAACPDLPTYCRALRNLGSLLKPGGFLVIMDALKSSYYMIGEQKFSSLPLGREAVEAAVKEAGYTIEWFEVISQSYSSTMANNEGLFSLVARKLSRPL

[4] = target: T3, BSA (Bos taurus, UniProt P02769); design: Intact protein LC/MS covalent labelling, fragments in pools of five, 200 uM each, 4 °C; conditions: 24 h, 4 °C, pool of five; 200 µM; covalent
T3 construct: gene ALB
T3 sequence (P02769 whole entry, the tested form may be a part): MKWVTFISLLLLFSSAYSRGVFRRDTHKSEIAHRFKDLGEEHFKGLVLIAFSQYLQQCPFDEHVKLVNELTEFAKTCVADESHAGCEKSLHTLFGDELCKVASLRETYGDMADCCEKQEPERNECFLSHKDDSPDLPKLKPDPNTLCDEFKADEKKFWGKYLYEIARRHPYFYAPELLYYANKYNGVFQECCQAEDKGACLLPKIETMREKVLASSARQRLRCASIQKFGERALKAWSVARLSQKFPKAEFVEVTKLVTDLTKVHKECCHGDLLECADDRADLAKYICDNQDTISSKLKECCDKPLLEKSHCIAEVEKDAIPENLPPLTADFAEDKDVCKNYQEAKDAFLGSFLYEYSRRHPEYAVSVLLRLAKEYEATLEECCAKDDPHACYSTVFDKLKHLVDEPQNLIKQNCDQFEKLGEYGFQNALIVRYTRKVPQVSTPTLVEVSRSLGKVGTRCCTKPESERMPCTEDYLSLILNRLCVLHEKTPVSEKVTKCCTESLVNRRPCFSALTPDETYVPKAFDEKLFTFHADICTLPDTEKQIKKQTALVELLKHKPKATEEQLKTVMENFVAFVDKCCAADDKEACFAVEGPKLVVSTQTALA

[5] = target: T4, PCAF (Homo sapiens, UniProt Q92831); design: Intact protein LC/MS covalent labelling, fragments in pools of five, 200 uM each, 4 °C; conditions: 24 h, 4 °C, pool of five; 200 µM; covalent
T4 construct: gene KAT2B
T4 sequence (Q92831 whole entry, the tested form may be a part): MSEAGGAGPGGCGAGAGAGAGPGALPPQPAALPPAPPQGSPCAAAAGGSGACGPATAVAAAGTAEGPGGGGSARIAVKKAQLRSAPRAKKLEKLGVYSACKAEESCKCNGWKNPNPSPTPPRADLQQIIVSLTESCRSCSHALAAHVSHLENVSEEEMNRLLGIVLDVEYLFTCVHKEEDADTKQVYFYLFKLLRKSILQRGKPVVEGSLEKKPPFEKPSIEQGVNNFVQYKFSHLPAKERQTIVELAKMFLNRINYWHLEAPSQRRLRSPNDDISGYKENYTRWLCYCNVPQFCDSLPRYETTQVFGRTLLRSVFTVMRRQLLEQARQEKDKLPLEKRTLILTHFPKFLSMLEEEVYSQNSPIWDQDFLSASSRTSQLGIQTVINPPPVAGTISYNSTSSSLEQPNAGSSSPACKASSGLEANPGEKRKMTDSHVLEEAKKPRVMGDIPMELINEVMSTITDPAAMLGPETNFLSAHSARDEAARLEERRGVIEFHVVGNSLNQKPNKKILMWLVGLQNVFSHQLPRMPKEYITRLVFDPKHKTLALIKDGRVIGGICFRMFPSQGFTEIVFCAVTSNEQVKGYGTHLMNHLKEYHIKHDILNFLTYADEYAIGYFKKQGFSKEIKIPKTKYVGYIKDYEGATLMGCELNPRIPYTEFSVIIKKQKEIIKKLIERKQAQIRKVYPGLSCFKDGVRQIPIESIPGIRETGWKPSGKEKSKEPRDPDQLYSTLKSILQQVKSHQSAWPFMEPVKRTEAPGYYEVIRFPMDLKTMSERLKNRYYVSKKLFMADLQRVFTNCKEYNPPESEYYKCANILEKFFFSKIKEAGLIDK

[6] = target: T5, NUDT7 (Homo sapiens, UniProt P0C024); design: Intact protein LC/MS covalent labelling, fragments in pools of five, 200 uM each, 4 °C; conditions: 24 h, 4 °C, pool of five; 200 µM; covalent
T5 construct: residues 14-235, E. coli, pNIC28-Bsa4, N-terminal His6 tag removed by TEV, construct 26672 Da
T5 sequence (P0C024 14-235): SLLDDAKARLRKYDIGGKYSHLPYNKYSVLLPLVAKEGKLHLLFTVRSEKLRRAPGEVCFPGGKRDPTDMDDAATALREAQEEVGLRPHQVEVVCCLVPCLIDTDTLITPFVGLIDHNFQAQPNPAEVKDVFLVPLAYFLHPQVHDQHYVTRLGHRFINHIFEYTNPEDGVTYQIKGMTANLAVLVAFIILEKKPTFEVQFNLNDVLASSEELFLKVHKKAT

[7] = in vitro; design: species or system CCD841, HEK293; conditions: human, hb2 cells, read-out: HB-2 Cells Viability (%)
[8] = in vitro; design: species or system HB2, CCD841; conditions: human, hek293 cells

OTUB2 [2] | NNMT [3] | BSA [4] | PCAF [5] | NUDT7 [6] | SMILES | viability at 48 h, 10 µM [1] [%] | viability at 48 h, 10 µM [7] [%] | viability at 48 h, 10 µM [8] [%]
0.16 | 0 | 0 | 0 | 0.19 | O=C(CCl)NC1c2ccccc2-c2ccccc21 [PCM-0102802] | 82.7 | 61.8 | 58.9
0 | 0 | 0 | 0 | 0.06 | C=CC(=O)N1CCC(c2noc(C3CC3)n2)CC1 [PCM-0102810] | 103 | 103 | 94.1
0 | 0 | 0 | 0 | 0 | C#CCN1CCN(C(=O)CCl)CC1.Cl [PCM-0102811] | 84.9 | 92.5 | 72.2
0 | 0 | 0 | 0 | 0 | O=C(CCl)N=c1sccn1Cc1cccc2ccccc12 [PCM-0102842] | 4.2 | 8.4 | 5.2
0.13 | 0 | 0 | 0 | 0 | Cc1ccc(S(=O)(=O)NC(=O)CCl)cc1 [PCM-0102850] | 114 | 101 | 81.4
0 | 0.24 | 0 | 0 | 0 | CC(C)(C)CCNC(=O)CCl [PCM-0102853] | 91.6 | 99.7 | 102
0 | 0 | 0 | 0 | 0.09 | N#CC1(NC(=O)CCl)CCC1 [PCM-0102854] | 81.1 | 90 | 93.1

The remaining lines, values behind:

SMILES | OTUB2 [2] | NNMT [3] | BSA [4] | PCAF [5] | NUDT7 [6] | viability at 48 h, 10 µM [1] [%] | viability at 48 h, 10 µM [7] [%] | viability at 48 h, 10 µM [8] [%]
NS(=O)(=O)c1ccc(NC(=O)CCl)cc1 [PCM-0102807] | 0.29 | 0 | 0 | 0 | 0 | 56.9 | 53.8 | 8
C#Cc1cccc(NC(=O)NC(=O)CCl)c1 [PCM-0102813] | 0.14 | 0 | 0 | 0 | 0.13 | 82.2 | 74.1 | 73.2
Cl.O=C(CCl)N1CCN(Cc2ccc3c(c2)CCO3)CC1 [PCM-0102814] | 0 | 0.24 | 0.11 | 0 | 0 | 58.5 | 22.2 | 37.6
CC(NC(=O)CCl)c1ccc2c(c1)CC(=O)N2 (stereo not shown) [PCM-0102816] | 0.29 | 0 | 0 | 0 | 0.22 | 86 | 94.8 | 74.8
Cc1cccc(CNC(=O)CCl)c1 [PCM-0102821] | 0.86 | 0.29 | 0 | 0 | 0 | 80.7 | 99.7 | 87.5
O=C(CCl)NC(=O)CN1CCCC1=O [PCM-0102824] | 0 | 0 | 0 | 0 | 0 | 111 | 105 | 110
Cc1ccccc1CC(=O)NNC(=O)CCl [PCM-0102829] | 0.3 | 0 | 0 | 0 | 0 | 83.9 | 90.9 | 104
